Experimental data from patent US10457707B2, “Substituted urea depsipeptide analogs as activators of the CLPP endopeptidase” (priority 2015, dated 2019).
≈ marks a conversion by molar mass, not a printed value. *1 amine or outer side, *2 acyl side, *3 side chain or, on linkers, in order; H or OH if unused. Where a SMILES comes first, the peptide text is derived from it. Bridges are numbered along the chain shown (N, C = ends). [ ]: non-standard residue; d: D form. The star is where a group is joined. ξ: configuration not given here. Phe(3,5-F2) = N[C@@H](Cc1cc(F)cc(F)c1)C(=O)O; NH(1-Me-indolin-5-yl) = CN1CCc2cc(N*)ccc21; NH(4-OCF3-phenyl) = FC(F)(F)Oc1ccc(N*)cc1; Morpholine(3S-CO) = O=C(O)[C@@H]1COCCN1; NH(4-Cl-2-F-phenyl) = Fc1cc(Cl)ccc1N*; Pro(4R-Me) = C[C@H]1CN[C@H](C(=O)O)C1; NH(3,4-Me2-phenyl) = Cc1ccc(N*)cc1C; Hyp = O=C(O)[C@@H]1C[C@@H](O)CN1; NH(4-Me-phenyl) = Cc1ccc(N*)cc1; ξNMeThr = CNC(C(=O)O)[C@@H](C)O; aThr = C[C@H](O)[C@H](N)C(=O)O; Pip = O=C(O)[C@@H]1CCCCN1; NMeA = CN[C@@H](C)C(=O)O; X1 = N#Cc1cc(N*)ccc1F; CO = O=C([*:1])[*:2]; ξP = O=C(O)C1CCCN1

Test system: Streptococcus pneumoniae, R6
Assay: Minimal inhibitory concentration assay
Format: cell-based
Settings: read-out: Minimal Inhibitory Concentrations S. pneumoniae R6
How it was run: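 Microbroth dilution with two-fold serial compound dilutions in broth, incubated aerobically overnight at 37° C. MIC taken as the lowest concentration preventing bacterial growth.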

C[C@@H]1C[C@H]2C(=O)OC[C@H](NC(=O)[C@H](Cc3cc(F)cc(F)c3)NC(=O)Nc3ccc4c(c3)OCO4)C(=O)N3C[C@H](O)C[C@H]3C(=O)N3CCCCC3C(=O)N[C@@H](C)C(=O)N2C1 (stereo partly drawn) [Compound 325, (S)-2-(3-(benzo[d][1,3]dioxol-5-yl)ureido)-3-(3,5-difluorophenyl)-N-((2R,6S,8aR,14aS,16R,20S,23aS)-16-hydroxy-2,6-dimethyl-5,8,14,19,23-pentaoxooctadecahydro-1H,5H,14H,19H-pyrido[2,1-i]dipyrrolo[2,1-c:2′,1′-l][1]oxa[4,7,10,13]tetraazacyclo-hexadecin-20-yl)propanamide]
MIC: 0.078 µM (≈ 0.0655 µg/mL)

C[C@@H]1C[C@H]2C(=O)O[C@@H](C)[C@H](NC(=O)[C@H](Cc3cc(F)cc(F)c3)NC(=O)Nc3ccc4c(c3)CCN4C)C(=O)N3C[C@H](O)C[C@H]3C(=O)N3CCOC[C@H]3C(=O)N[C@@H](C)C(=O)N2C1 [Compound 315, (S)-3-(3,5-difluorophenyl)-N-((6aS,8R,12S,13S,15aS,17R,21S,23aS)-8-hydroxy-13,17,21-trimethyl-6,11,15,20,23-pentaoxooctadecahydro-6H,11H,15H-[1,4]oxazino[3,4-i]dipyrrolo[2,1-c:2′,1′-l][1]oxa[4,7,10,13]tetraazacyclohexadecin-12-yl)-2-(3-(1-methylindolin-5-yl)ureido)propanamide] ({NH(1-Me-indolin-5-yl)-CO}-[Phe(3,5-F2)][aThr][Hyp][Morpholine(3S-CO)]A[Pro(4R-Me)]; ester 2-C)
MIC: 0.313 µM (≈ 0.271 µg/mL)

C[C@@H]1C[C@H]2C(=O)O[C@@H](C)[C@H](NC(=O)[C@H](Cc3cc(F)cc(F)c3)NC(=O)Nc3ccc(F)c(C#N)c3)C(=O)N3CCC[C@H]3C(=O)N3CCCC[C@H]3C(=O)N[C@@H](C)C(=O)N2C1 [Compound 324, (S)-2-(3-(3-cyano-4-fluorophenyl)ureido)-3-(3,5-difluorophenyl)-N-((2R,6S,8aS,14aS,20S,21S,23aS)-2,6,21-trimethyl-5,8,14,19,23-pentaoxooctadecahydro-1H,5H,14H,19H-pyrido[2,1-i]dipyrrolo[2,1-c:2′,1′-l][1]oxa[4,7,10,13]tetraazacyclo-hexadecin-20-yl)propanamide] ({X1-CO}-[Phe(3,5-F2)][aThr]P[Pip]A[Pro(4R-Me)]; ester 2-C)
MIC: 0.625 µM (≈ 0.523 µg/mL)

C[C@@H]1C[C@H]2C(=O)O[C@@H](C)[C@H](NC(=O)[C@H](Cc3cc(F)cc(F)c3)NC(=O)Nc3ccc(F)c(C#N)c3)C(=O)N3C[C@H](O)C[C@H]3C(=O)N3CCOC[C@H]3C(=O)N[C@@H](C)C(=O)N2C1 [Compound 326, (S)-2-(3-(3-cyano-4-fluorophenyl)ureido)-3-(3,5-difluorophenyl)-N-((6aS,8R,12S,13S,15aS,17R,21S,23aS)-8-hydroxy-13,17,21-trimethyl-6,11,15,20,23-pentaoxooctadecahydro-6H,11H,15H-[1,4]oxazino[3,4-i]dipyrrolo[2,1-c:2′,1′-l][1]oxa[4,7,10,13]tetraazacyclo-hexadecin-12-yl)propanamide] ({X1-CO}-[Phe(3,5-F2)][aThr][Hyp][Morpholine(3S-CO)]A[Pro(4R-Me)]; ester 2-C)
MIC: 0.625 µM (≈ 0.534 µg/mL)

C[C@@H]1NC(=O)[C@H](C)N(C)C(=O)[C@@H]2CCCN2C(=O)[C@@H](NC(=O)[C@H](Cc2ccccc2)NC(=O)Nc2ccc(OC(F)(F)F)cc2)COC(=O)C2CCCN2C1=O (stereo partly drawn) [Compound 213, (2S)-3-phenyl-2-(3-(4-(trifluoromethoxy)phenyl)ureido)-N-((6S,9S,11aS,17S)-6,9,10-trimethyl-5,8,11,16,20-pentaoxohexadecahydro-1H,5H,16H-dipyrrolo[2,1-c:2′,1′-l][1]oxa[4,7,10,13]tetraazacyclohexadecin-17-yl)propanamide] ({NH(4-OCF3-phenyl)-CO}-FSP[NMeA]A[ξP]; ester 2-C)
MIC: < 0.2 µM

C[C@@H]1C[C@H]2C(=O)O[C@@H](C)[C@H](NC(=O)[C@H](Cc3cc(F)cc(F)c3)NC(=O)Nc3ccc(Cl)cc3F)C(=O)N3CCC[C@H]3C(=O)N3CCOC[C@H]3C(=O)N[C@@H](C)C(=O)N2C1 [Compound 314, (S)-2-(3-(4-chloro-2-fluorophenyl)ureido)-3-(3,5-difluorophenyl)-N-((6aS,12S,13S,15aS,17R,21S,23aS)-13,17,21-trimethyl-6,11,15,20,23-pentaoxooctadecahydro-6H,11H,15H-[1,4]oxazino[3,4-i]dipyrrolo[2,1-c:2′,1′-l][1]oxa[4,7,10,13]tetraazacyclo-hexadecin-12-yl)propanamide] ({NH(4-Cl-2-F-phenyl)-CO}-[Phe(3,5-F2)][aThr]P[Morpholine(3S-CO)]A[Pro(4R-Me)]; ester 2-C)
MIC: < 0.02 µM

Cc1ccc(NC(=O)N[C@@H](Cc2cc(F)cc(F)c2)C(=O)N[C@H]2COC(=O)[C@@H]3C[C@@H](C)CN3C(=O)[C@H](C)NC(=O)[C@@H]3CCCCN3C(=O)[C@@H]3CCCN3C2=O)cc1C [Compound 207, (S)-3-(3,5-difluorophenyl)-N-((2R,6S,8aS,14aS,20S,23aS)-2,6-dimethyl-5,8,14,19,23-pentaoxooctadecahydro-1H,5H,14H,19H-pyrido[2,1-i]dipyrrolo[2,1-c:2′,1′-l][1]oxa[4,7,10,13]tetraazacyclohexadecin-20-yl)-2-(3-(3,4-dimethylphenyl)ureido)propanamide]
MIC: < 0.2 µM

Cc1ccc(NC(=O)N[C@@H](Cc2cc(F)cc(F)c2)C(=O)N[C@@H]2C(=O)N3C[C@H](O)C[C@H]3C(=O)N3CCOC[C@H]3C(=O)N[C@@H](C)C(=O)N3C[C@H](C)C[C@H]3C(=O)O[C@H]2C)cc1C [Compound 215, (S)-3-(3,5-difluorophenyl)-2-(3-(3,4-dimethylphenyl)ureido)-N-((6aS,8R,12S,13S,15aS,17R,21S,23aS)-8-hydroxy-13,17,21-trimethyl-6,11,15,20,23-pentaoxooctadecahydro-6H,11H,15H-[1,4]oxazino[3,4-i]dipyrrolo[2,1-c:2′,1′-l][1]oxa[4,7,10,13]tetraazacyclohexadecin-12-yl)propanamide] ({NH(3,4-Me2-phenyl)-CO}-[Phe(3,5-F2)][aThr][Hyp][Morpholine(3S-CO)]A[Pro(4R-Me)]; ester 2-C)
MIC: < 0.2 µM

Cc1ccc(NC(=O)N[C@@H](Cc2cc(F)cc(F)c2)C(=O)N[C@H]2COC(=O)[C@@H]3C[C@@H](C)CN3C(=O)[C@H](C)NC(=O)C([C@@H](C)O)N(C)C(=O)[C@@H]3CCCN3C2=O)cc1 (stereo partly drawn) [Compound 322, (S)-3-(3,5-difluorophenyl)-N-((2R,6S,9R,11aS,17S,20aS)-9-((R)-1-hydroxyethyl)-2,6,10-trimethyl-5,8,11,16,20-pentaoxohexadecahydro-1H,5H,16H-dipyrrolo[2,1-c:2′,1′-l][1]oxa[4,7,10,13]tetraazacyclohexadecin-17-yl)-2-(3-(p-tolyl)ureido)propanamide] ({NH(4-Me-phenyl)-CO}-[Phe(3,5-F2)]SP[ξNMeThr]A[Pro(4R-Me)]; ester 2-C)
MIC: 0.156 µM (≈ 0.124 µg/mL)

Cc1ccc(NC(=O)N[C@@H](Cc2ccccc2)C(=O)N[C@H]2COC(=O)[C@@H]3C[C@@H](C)CN3C(=O)[C@H](C)NC(=O)[C@@H]3CCCCN3C(=O)[C@@H]3CCCN3C2=O)cc1C [Compound 206, (S)—N-((2R,6S,8aS,14aS,20S,23aS)-2,6-dimethyl-5,8,14,19,23-pentaoxooctadecahydro-1H,5H,14H,19H-pyrido[2,1-i]dipyrrolo[2,1-c:2′,1′-l][1]oxa[4,7,10,13]tetraazacyclohexadecin-20-yl)-2-(3-(3,4-dimethylphenyl)ureido)-3-phenylpropanamide]
MIC: < 0.2 µM
